Laboratory results reported in article PMC9268013, “Design, Synthesis, and Biological Evaluation of N14-Amino Acid-Substituted Tetrandrine Derivatives as Potential Antitumor Agents against Human Colorectal Cancer” (Molecules, 2022).

Tests used:
[1] = system: human breast cancer cells (MCF-7); assay: MTT antiproliferative assay, MCF-7; type: cell-based; conditions: Homo sapiens, MCF7, 72 h
Experimental: (§1) Human lung cancer cell (A549,), human umbilical vein endothelial cells (HUVECs,), human colon cancer cell lines (HCT-15), human breast cancer cells (MCF-7), human liver cancer cells (HepG2), human pancreatic cancer cells (BxPC-3), and human hepatic cell line (L-02) were obtained from the Sichuan University. A549, HUVECs, and L-02 were cultured in DMEM medium (high glucose, HyClone, GE Healthcare, Sydney, Australia). Human colon cancer cell lines HCT-15, human pancreatic cancer cells […] BxPC-3 were cultured in RPMI-1640. Human breast cancer cells MCF-7 and human liver cancer cells HepG2 were cultured in MEM medium. All the mediums, including 10% fetal bovine serum (FBS, HyClone, GE Healthcare, Sydney, Australia) and 1% ampicillin/streptomycin, were used to culture the above cells at 37 °C in a humidified atmosphere (5% CO2 and 95% air).
(§2) The antiproliferative activity of the title compounds was determined using the MTT (3-(4,5-dimethylthiazol-2-yl)-2,5-diphenyltetrazolium bromide, Sigma-Aldrich, Saint Louis, MO, USA) assay on different cells. Cells lines were seeded into 96-well plates at a density of 2000 to 6000 cells/well. DMSO was used to dissolve the test compounds, and TET was used as a positive control. After 24 h, the test compounds were added at different concentrations (0.625, 1.25, 2.5, 5, 10, and 20 μM) and incubated at 37 °C for 72 h. MTT was added to each well at a final concentration of 0.5 mg/mL and incubated at 37 °C for 4 h. Then, 150 μL of DMSO was added to each well to dissolve the formazan crystals. The absorbance was measured at 570 nm by a microplate reader (ELX800UV, Bio-Tek, Windoski, VT, USA). All measurements were repeated at least three times under the same conditions. Graphpad Prism 8.0 was used to calculate the IC50 values.

[2] = system: human umbilical vein endothelial cells (HUVEC); assay: MTT antiproliferative assay, HUVEC; type: cell-based; conditions: 72 h
Experimental: as §1, §2

[3] = system: human normal hepatocyte cells (L-02); assay: MTT toxicity assay, normal hepatocytes L-02; type: cell-based; conditions: 72 h, normal hepatocyte L-02 (toxicity), read-out: Antiproliferative Activity (IC50/μM) L-02
Experimental: as §1, §2

[4] = system: human lung cancer cells (A549); assay: MTT antiproliferative assay, A549; type: cell-based; conditions: Homo sapiens, A549, 72 h
Experimental: as §1, §2

[5] = system: human colon cancer cells (HCT-15); assay: MTT antiproliferative assay, HCT-15; type: cell-based; conditions: for Improvement of antiproliferative activity compared with TET: HCT-15 cells, vs TET (IC50 = 6.12 μM); for IC50: Homo sapiens, MTT, 72 h, HCT-15
Experimental: as §1, §2

[6] = system: human pancreatic cancer cells (BxPC-3); assay: MTT antiproliferative assay, BxPC-3; type: cell-based; conditions: Homo sapiens, BXPC-3, 72 h
Experimental: as §1, §2

[7] = system: human liver cancer cells (HepG2); assay: MTT antiproliferative assay, HepG2; type: cell-based; conditions: Homo sapiens, HepG2, 72 h
Experimental: as §1, §2

[8] = Aqueous solubility determination by HPLC; type: physicochemical; conditions: neutral water
Experimental: Briefly, each tested compound (10 mg) was dissolved in 10 mL of CH3OH, and the standard solution (0.5 mL) was used to determine the wavelength of maximum absorbance by HPLC. The solution was diluted as necessary, and the solubility was determined by linear regression with R^2 > 0.999. Each tested compound (5 mg) was ultrasound dissolved in 3 mL of pure water for 1 h at room temperature, and the mixture was then […] at 3000 rpm for 15 min. The saturated supernatants were determined by HPLC at the wavelength of the maximum absorption, and the absorbances were obtained. The solubility was calculated according to the standard curve.

HCT-15 cells = assay: Flow cytometry Annexin V-FITC/PI apoptosis analysis; type: cell-based, human; conditions: HCT-15, TET treatment groups (1.25, 2.5, 5 μM), 48 h
Experimental: HCT-15 cells were cultured in complete medium in six-well plates for 24 h, and […]. 2.5, 5 μM of 16 was added in triplicate for 48 h incubation. The cells were digested with trypsin without EDTA, washed twice with cold PBS, and resuspended in 500 μL binding buffer. The cell suspension was stained successively with 5 μL Annexin V-FITC and 5 μL PI (Keygen Biotech, Nanjing, China), and cultured for 15 min and 5 min in total dark, respectively. Afterwards, the percentages of apoptotic cells were determined by a flow cytometry. Data were analyzed by FlowJo software (Version 10, FlowJo, LLC, Ashland, OR, USA).

`COc1cc(NC(=O)[C@@H](Cc2ccccc2)NC(=O)OC(C)(C)C)c2cc1Oc1ccc(cc1)C[C@H]1c3cc(c(OC)cc3CCN1C)Oc1c(OC)c(OC)cc3c1[C@H](C2)N(C)CC3` [Compound 10] gave an IC50 [1] of 2.59 ± 0.11 µM, an IC50 [2] of 1.8 ± 0.02 µM and an IC50 [3] of 15.54 ± 0.11 µM. The IC50 [4] was 1.96 ± 0.24 µM, the “Improvement of antiproliferative activity compared with TET” value [5] was “more than 6 fold” and the IC50 [5] was 0.91 ± 0.05 µM. It also gave an IC50 [6] of 2.31 ± 0.08 µM and an IC50 [7] of 1.54 ± 0.02 µM.
Compound `COc1cc(NC(=O)[C@H]2CCCN2C(=O)OC(C)(C)C)c2cc1Oc1ccc(cc1)C[C@H]1c3cc(c(OC)cc3CCN1C)Oc1c(OC)c(OC)cc3c1[C@H](C2)N(C)CC3` [Compound 7, 14-N-(Boc-L-proline)-tetrandrine] has an IC50 [1] of 5.71 ± 0.29 µM, an IC50 [2] of 3.49 ± 0.31 µM and an IC50 [3] of 17.5 ± 0.21 µM. It also gave an IC50 [4] of 6.4 ± 0.36 µM, an IC50 [5] of 1.15 ± 0.17 µM and an IC50 [6] of 3.1 ± 0.26 µM. It also gave an IC50 [7] of 3.5 ± 1.37 µM.
For `COc1cc(NC(=O)[C@@H](N)CC(C)C)c2cc1Oc1ccc(cc1)C[C@H]1c3cc(c(OC)cc3CCN1C)Oc1c(OC)c(OC)cc3c1[C@H](C2)N(C)CC3` [Compound 15, 14-N-(L-leucine)-tetrandrine], the IC50 [1] was 6.74 ± 0.16 µM, the IC50 [2] was 3.09 ± 0.36 µM and the IC50 [3] was 12.08 ± 0.04 µM. For the same compound, the IC50 [4] was 5.92 ± 0.73 µM, the IC50 [5] was 2.71 ± 0.22 µM and the IC50 [6] was 4.55 ± 0.27 µM. For the same compound, the IC50 [7] was 3.66 ± 0.82 µM.
In the case of `COc1cc(NC(=O)[C@@H](N)Cc2ccc(O)cc2)c2cc1Oc1ccc(cc1)C[C@H]1c3cc(c(OC)cc3CCN1C)Oc1c(OC)c(OC)cc3c1[C@H](C2)N(C)CC3` [Compound 20, 14-N-(L-tyrosine)-tetrandrine], the IC50 [1] is reported as 3.7 ± 0.91 µM, the IC50 [2] is reported as 1.91 ± 0.09 µM and the IC50 [3] is reported as 10 ± 1.28 µM. For the same compound, the IC50 [4] was 4.12 ± 0.27 µM, the IC50 [5] was 3.33 ± 0.08 µM and the IC50 [6] was 2.36 ± 0.15 µM. It also gave an IC50 [7] of 1.44 ± 0.18 µM.
For `COc1cc(NC(=O)[C@@H](NC(=O)OC(C)(C)C)[C@@H](C)O)c2cc1Oc1ccc(cc1)C[C@H]1c3cc(c(OC)cc3CCN1C)Oc1c(OC)c(OC)cc3c1[C@H](C2)N(C)CC3` [Compound 9], the IC50 [1] was 11.3 ± 0.55 µM, the IC50 [2] was 4.91 ± 1.05 µM and the IC50 [3] was over 20 µM. The IC50 [4] was 12.3 ± 0.61 µM, the IC50 [5] was 8.57 ± 0.57 µM and the IC50 [6] was 13.1 ± 0.37 µM. The IC50 [7] was 6.97 ± 0.34 µM.
With `COc1cc(NC(=O)[C@H](CO)NC(=O)OC(C)(C)C)c2cc1Oc1ccc(cc1)C[C@H]1c3cc(c(OC)cc3CCN1C)Oc1c(OC)c(OC)cc3c1[C@H](C2)N(C)CC3` [Compound 8, 14-N-(Boc-L-serine)-tetrandrine] the IC50 [1] was 5.84 ± 0.25 µM, the IC50 [2] was 3.96 ± 0.36 µM and the IC50 [3] was over 20 µM. For the same compound, the IC50 [4] was 7.45 ± 0.32 µM, the IC50 [5] was 5.87 ± 0.3 µM and the IC50 [6] was 3.55 ± 0.32 µM. For the same compound, the IC50 [7] was 3.76 ± 1.34 µM.
Compound `COc1cc(NC(=O)[C@@H](NC(=O)OC(C)(C)C)C(C)C)c2cc1Oc1ccc(cc1)C[C@H]1c3cc(c(OC)cc3CCN1C)Oc1c(OC)c(OC)cc3c1[C@H](C2)N(C)CC3` [Compound 5] has an IC50 [1] of 7.4 ± 0.31 µM, an IC50 [2] of 3.04 ± 0.34 µM and an IC50 [3] of over 20 µM. The IC50 [4] was 7.24 ± 0.41 µM, the IC50 [5] was 4.31 ± 0.09 µM and the IC50 [6] was 4.63 ± 0.09 µM. The IC50 [7] was 3.54 ± 0.3 µM.
`COc1cc(NC(=O)CNC(=O)OC(C)(C)C)c2cc1Oc1ccc(cc1)C[C@H]1c3cc(c(OC)cc3CCN1C)Oc1c(OC)c(OC)cc3c1[C@H](C2)N(C)CC3` [Compound 3, 14-N-(Boc-L-glycine)-tetrandrine] gave an IC50 [1] of 2.91 ± 0.17 µM, an IC50 [2] of 1.68 ± 0.21 µM and an IC50 [3] of 8.59 ± 0.13 µM. The IC50 [4] was 2.15 ± 0.17 µM, the “Improvement of antiproliferative activity compared with TET” value [5] was “about 2 fold” and the IC50 [5] was 2.42 ± 0.06 µM. The IC50 [6] was 2.55 ± 0.03 µM, the IC50 [7] was 1.94 ± 0.27 µM and the “Increase of aqueous solubility compared to TET” value ([8]; vs TET) was “approximately 16 fold”.
For `COc1ccc2cc1Oc1ccc(cc1)C[C@H]1c3cc(c(OC)cc3CCN1C)Oc1c(OC)c(OC)cc3c1[C@H](C2)N(C)CC3` [TET, tetrandrine], the IC50 [1] was 3.9 ± 0.47 µM, the “Percentage of apoptotic cells” value (HCT-15 cells) was “lower than 14%” and the IC50 [2] was 3.62 ± 0.02 µM. For the same compound, the IC50 [3] was 16 ± 1.18 µM, the IC50 [4] was 6.39 ± 0.83 µM and the IC50 [5] was 6.12 ± 0.51 µM. The IC50 [6] was 7.6 ± 0.16 µM, the IC50 [7] was 3.25 ± 0.11 µM and the solubility at 1 h ([8]; pure water, thermodynamic from solid, room temperature, HPLC) was under 30 µg/mL.
